Measurements reported in paper PMC4236894, “Salicylanilide Diethyl Phosphates as Potential Inhibitors of Some Mycobacterial Enzymes” (The Scientific World Journal, 2014).
Like-named read-outs stand apart in the source and are kept apart here.

What was measured:
[1] = molecular target: T1, L-alanine dehydrogenase (MtAlaDH) (Mycobacterium tuberculosis, UniProt P9WQB1); experiment: biochemical
T1 sequence (P9WQB1 1-371): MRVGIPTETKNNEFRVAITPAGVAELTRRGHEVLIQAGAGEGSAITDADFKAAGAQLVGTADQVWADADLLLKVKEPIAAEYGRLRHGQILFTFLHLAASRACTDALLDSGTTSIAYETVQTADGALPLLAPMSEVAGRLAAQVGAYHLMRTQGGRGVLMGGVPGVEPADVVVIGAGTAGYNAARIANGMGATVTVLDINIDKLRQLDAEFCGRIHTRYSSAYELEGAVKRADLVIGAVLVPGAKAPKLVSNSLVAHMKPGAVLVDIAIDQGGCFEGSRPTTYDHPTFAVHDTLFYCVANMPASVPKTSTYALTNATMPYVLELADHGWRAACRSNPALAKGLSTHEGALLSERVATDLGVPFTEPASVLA

[2] = molecular target: Pantothenate synthetase (MtPS) (Mycobacterium tuberculosis, UniProt P9WIL5); experiment: Mycobacterial pantothenate synthetase (MtPS) screening; format: biochemical; settings: 50 μM compound
Experimental: Sixty microliters of the PS reagent mix was added, including NADH, pantoic acid, β-alanine, ATP, phosphoenolpyruvate, MgCl2, myokinase, pyruvate kinase, and lactate dehydrogenase in buffer, to each well of a 96-well plate. The compounds were then added to plates in 1 μL volumes. The reaction was initiated by the addition of 39 μL PS diluted in buffer. The final concentrations in the reaction were 0.4 mM NADH, 5 mM pantoic acid, 10 mM MgCl2, 5 mM β-alanine, 10 mM ATP, 1 mM potassium phosphoenolpyruvate, and 18 units/mL each of chicken muscle myokinase, rabbit muscle pyruvate kinase, and rabbit muscle lactate dehydrogenase diluted in 100 mM HEPES buffer (pH 7.8), 1% DMSO, and 5 μg/mL PS in a final volume of 100 μL. The test plate was immediately transferred to a microplate reader, and absorbance was measured at 340 nm every 12 sec for 120 sec. […] The per cent inhibition was calculated using the following formula: 100 ∗ 1 − compound rate − background rate/full reaction rate − background rate.

[3] = molecular target: T2, Lysine ε-aminotransferase (MtLAT) (Mycobacterium tuberculosis, UniProt P9WQ77); experiment: biochemical
T2 sequence (P9WQ77 1-449): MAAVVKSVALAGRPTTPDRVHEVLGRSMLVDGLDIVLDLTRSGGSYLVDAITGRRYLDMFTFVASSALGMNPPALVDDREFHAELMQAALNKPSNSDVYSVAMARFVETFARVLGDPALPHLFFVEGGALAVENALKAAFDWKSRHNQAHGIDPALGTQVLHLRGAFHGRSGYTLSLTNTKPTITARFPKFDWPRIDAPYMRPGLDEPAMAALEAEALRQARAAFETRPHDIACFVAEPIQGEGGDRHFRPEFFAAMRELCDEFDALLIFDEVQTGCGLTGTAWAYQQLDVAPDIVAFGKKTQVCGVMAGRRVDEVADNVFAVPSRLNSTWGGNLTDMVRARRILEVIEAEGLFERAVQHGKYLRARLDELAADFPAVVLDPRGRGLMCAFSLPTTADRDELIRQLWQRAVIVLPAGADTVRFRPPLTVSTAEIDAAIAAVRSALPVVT

[4] = molecular target: T3, Chorismate mutase (MtCM) (Mycobacterium tuberculosis, UniProt P9WIB9); experiment: biochemical
T3 sequence (P9WIB9 34-199): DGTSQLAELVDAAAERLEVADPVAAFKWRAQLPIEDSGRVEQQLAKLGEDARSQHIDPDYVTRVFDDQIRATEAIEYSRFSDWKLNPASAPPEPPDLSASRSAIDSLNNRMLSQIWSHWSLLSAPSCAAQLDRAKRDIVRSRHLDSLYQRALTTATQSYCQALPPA
Experimental: Reaction volumes of 0.4 mL of chorismate (typically 1 mM) in 50 mM Tris HCl (pH 7.5), 0.5 mM EDTA, 0.1 mg/mL bovine serum albumin, and 10 mM β-mercaptoethanol were incubated at 37°C for 5 min. […] The reaction was allowed to proceed at 37°C and was terminated after 1 to 5 min with 0.4 mL 1 M HCl. After a further incubation at 37°C for 10 min to convert prephenate, which is formed in the enzymatic reaction, to phenylpyruvate, 0.8 mL 2.5 M NaOH was added. The absorbance of the phenylpyruvate chromophore was read at 320 nm. We set up a blank with no enzyme for every reaction to account for the nonenzymatic conversion of chorismate to prephenate and added the enzyme after the addition of NaOH. […] A description of the methods can be found in the literature.

[5] = system: Mtb H37Rv strain; settings: cited from earlier work
[6] = molecular target: mycobacterial isocitrate lyase (ICL) (Mycobacterium tuberculosis, UniProt P9WKK7); experiment: Isocitrate lyase assay (ICL1), glyoxylate phenyl hydrazone formation; format: biochemical; settings: read-out: % ICL inhibition at 10 μM (±standard deviation)
Experimental: Isocitrate lyase activity was assayed according to the protocol reported by Dixon and Kornberg (glyoxylate phenyl hydrazone formation) at 10 µM of the investigated compounds. […] A description of the method can be found in the literature.

Chain of mycobacterial isocitrate lyase (ICL) (P9WKK7 whole entry): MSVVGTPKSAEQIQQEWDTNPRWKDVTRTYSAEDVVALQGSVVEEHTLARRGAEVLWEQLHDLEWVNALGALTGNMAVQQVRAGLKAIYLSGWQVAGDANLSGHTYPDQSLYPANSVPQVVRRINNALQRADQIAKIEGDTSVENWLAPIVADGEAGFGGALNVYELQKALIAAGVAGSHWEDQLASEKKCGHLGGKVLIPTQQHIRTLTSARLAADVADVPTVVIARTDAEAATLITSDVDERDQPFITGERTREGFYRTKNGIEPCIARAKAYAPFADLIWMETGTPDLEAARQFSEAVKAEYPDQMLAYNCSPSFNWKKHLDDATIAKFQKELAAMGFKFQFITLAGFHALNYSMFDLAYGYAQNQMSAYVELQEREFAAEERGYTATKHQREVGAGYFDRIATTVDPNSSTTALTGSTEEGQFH
Chain of Pantothenate synthetase (MtPS) (P9WIL5 whole entry, looked up): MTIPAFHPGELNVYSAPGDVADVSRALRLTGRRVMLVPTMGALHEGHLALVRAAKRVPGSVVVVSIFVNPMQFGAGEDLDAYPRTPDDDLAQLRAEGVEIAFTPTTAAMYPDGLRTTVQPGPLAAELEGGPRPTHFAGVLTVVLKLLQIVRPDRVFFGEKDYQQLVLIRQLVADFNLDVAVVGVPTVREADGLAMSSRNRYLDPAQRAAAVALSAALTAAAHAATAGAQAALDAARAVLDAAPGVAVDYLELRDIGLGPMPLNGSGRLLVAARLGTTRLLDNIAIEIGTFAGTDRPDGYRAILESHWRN

Compound	% inhibition at 50 μM against L-MtAlaDH [1]	IC50 [1]	% inhibition at 50 μM against MtLAT [3]	% inhibition at 50 μM against MtCM [4]	inhibition at 10 µM ([6]; 10 μM compound)	also measured
CCOP(=O)(OCC)Oc1cc(Cl)ccc1C(=O)Nc1cccc(Cl)c1 [1j]	12.30%	> 50 µM	29.30%	54.56%	–	% inhibition at 50 μM against MtPS [2]: 3.64%
CCOP(=O)(OCC)Oc1cc(Cl)ccc1C(=O)Nc1ccc(C(F)(F)F)cc1 [1r]	47.28%	> 50 µM	23.18%	50.05%	–	–
CCOP(=O)(OCC)Oc1cc(Cl)ccc1C(=O)Nc1cccc(Cl)c1 [1s, 5-Chloro-2-[(3-chlorophenyl)carbamoyl]phenyl diethyl phosphate]	–	4.96 µM	–	–	–	MICs against actively growing Mtb H37Rv strain [5]: 4 to 8 µM; inhibition at 10 µM [6]: 6 ± 0.83%; inhibition at 50 µM ([1]; read-out: % inhibition at 50 μM against L-MtAlaDH, 50 μM compound): > 70%; inhibition at 50 µM ([2]; read-out: % inhibition at 50 μM against MtPS): 11.2%; inhibition at 50 µM ([3]; read-out: % inhibition at 50 μM against MtLAT, 50 μM compound): > 50%; inhibition at 50 µM ([4]; read-out: % inhibition at 50 μM against MtCM, 50 μM compound): > 60%
O=C(O)CC[N+](=O)[O-] [3-Nitropropionic acid, 3-nitropropionic acid]	–	–	–	–	25 ± 4.1%	–
NNC(=O)c1ccncc1 [Isoniazid]	–	–	–	–	0%	–
